Results published in the NIST ThermoML archive (doi:10.1021/je300945r).

F/C=C/C(F)(F)F [trans-1,3,3,3-tetrafluoropropene]
Settings	mass density [kg/m3]
302.78 K, 433.9 kPa, Gas, isochoric method	22.222
303.13 K, 802 kPa, Liquid, Vibrating tube method	1145.9
303.13 K, 1676 kPa, Liquid, Vibrating tube method	1151.1
303.13 K, 4747 kPa, Liquid, Vibrating tube method	1167.3
303.13 K, 7769 kPa, Liquid, Vibrating tube method	1181.3
303.13 K, 8772 kPa, Liquid, Vibrating tube method	1185.8
303.14 K, 2678 kPa, Liquid, Vibrating tube method	1156.8
303.14 K, 3716 kPa, Liquid, Vibrating tube method	1162.3
303.14 K, 5757 kPa, Liquid, Vibrating tube method	1172.2
303.14 K, 6764 kPa, Liquid, Vibrating tube method	1176.9
303.14 K, 9773 kPa, Liquid, Vibrating tube method	1190
303.14 K, 10775 kPa, Liquid, Vibrating tube method	1194.1
303.14 K, 11778 kPa, Liquid, Vibrating tube method	1197.9
303.14 K, 12794 kPa, Liquid, Vibrating tube method	1201.7
303.14 K, 13809 kPa, Liquid, Vibrating tube method	1205.3
303.14 K, 14819 kPa, Liquid, Vibrating tube method	1209.1
303.14 K, 15824 kPa, Liquid, Vibrating tube method	1212.5
303.14 K, 16838 kPa, Liquid, Vibrating tube method	1216
303.14 K, 17845 kPa, Liquid, Vibrating tube method	1219.4
303.14 K, 18856 kPa, Liquid, Vibrating tube method	1222.6
303.14 K, 19875 kPa, Liquid, Vibrating tube method	1225.8
303.14 K, 20888 kPa, Liquid, Vibrating tube method	1228.8
303.14 K, 21899 kPa, Liquid, Vibrating tube method	1232
303.14 K, 22909 kPa, Liquid, Vibrating tube method	1234.9
303.14 K, 23916 kPa, Liquid, Vibrating tube method	1238
303.14 K, 24920 kPa, Liquid, Vibrating tube method	1240.8
303.14 K, 25928 kPa, Liquid, Vibrating tube method	1243.5
303.14 K, 26942 kPa, Liquid, Vibrating tube method	1246.4
303.14 K, 27943 kPa, Liquid, Vibrating tube method	1249.1
303.14 K, 28955 kPa, Liquid, Vibrating tube method	1251.6
303.14 K, 29958 kPa, Liquid, Vibrating tube method	1254.5
303.14 K, 30966 kPa, Liquid, Vibrating tube method	1256.7
303.15 K, 31972 kPa, Liquid, Vibrating tube method	1259.5
303.15 K, 32984 kPa, Liquid, Vibrating tube method	1262
303.15 K, 33993 kPa, Liquid, Vibrating tube method	1264.4
312.59 K, 574.7 kPa, Gas, isochoric method	28.571
312.6 K, 574.7 kPa, Gas, isochoric method	28.571
312.61 K, 397.1 kPa, Gas, isochoric method	19.231
312.61 K, 397.2 kPa, Gas, isochoric method	19.231
312.72 K, 168.6 kPa, Gas, isochoric method	7.634
312.76 K, 451.9 kPa, Gas, isochoric method	21.739
312.76 K, 452 kPa, Gas, isochoric method	21.739
312.8 K, 74.3 kPa, Gas, isochoric method	3.311
312.84 K, 268.5 kPa, Gas, isochoric method	12.5
313.13 K, 630.3 kPa, Gas, isochoric method	32.258
313.13 K, 630.4 kPa, Gas, isochoric method	32.258
313.14 K, 775 kPa, Liquid, Vibrating tube method	1109.9
313.14 K, 1656 kPa, Liquid, Vibrating tube method	1116.2
313.14 K, 2657 kPa, Liquid, Vibrating tube method	1122.9
313.14 K, 3683 kPa, Liquid, Vibrating tube method	1129.4
313.14 K, 5739 kPa, Liquid, Vibrating tube method	1141.4
313.14 K, 6749 kPa, Liquid, Vibrating tube method	1146.8
313.14 K, 7763 kPa, Liquid, Vibrating tube method	1152.1
313.14 K, 8784 kPa, Liquid, Vibrating tube method	1157.1
313.14 K, 9798 kPa, Liquid, Vibrating tube method	1161.9
313.14 K, 10800 kPa, Liquid, Vibrating tube method	1166.5
313.14 K, 11816 kPa, Liquid, Vibrating tube method	1170.9
313.14 K, 12819 kPa, Liquid, Vibrating tube method	1175.2
313.14 K, 13831 kPa, Liquid, Vibrating tube method	1179.3
313.14 K, 14845 kPa, Liquid, Vibrating tube method	1183.4
313.14 K, 15848 kPa, Liquid, Vibrating tube method	1187.2
313.14 K, 16855 kPa, Liquid, Vibrating tube method	1191.1
313.14 K, 18874 kPa, Liquid, Vibrating tube method	1198.3
313.14 K, 19890 kPa, Liquid, Vibrating tube method	1201.9
313.14 K, 20909 kPa, Liquid, Vibrating tube method	1205.3
313.14 K, 21923 kPa, Liquid, Vibrating tube method	1208.7
313.14 K, 22937 kPa, Liquid, Vibrating tube method	1212
313.14 K, 23947 kPa, Liquid, Vibrating tube method	1215.2
313.14 K, 25962 kPa, Liquid, Vibrating tube method	1221.3
313.14 K, 26971 kPa, Liquid, Vibrating tube method	1224.3
313.14 K, 28984 kPa, Liquid, Vibrating tube method	1230.1
313.15 K, 4723 kPa, Liquid, Vibrating tube method	1135.7
313.15 K, 17865 kPa, Liquid, Vibrating tube method	1194.7
313.15 K, 24948 kPa, Liquid, Vibrating tube method	1218.2
313.15 K, 27973 kPa, Liquid, Vibrating tube method	1227.2
313.15 K, 30002 kPa, Liquid, Vibrating tube method	1232.9
313.15 K, 31006 kPa, Liquid, Vibrating tube method	1235.7
313.15 K, 32010 kPa, Liquid, Vibrating tube method	1238.4
313.15 K, 33010 kPa, Liquid, Vibrating tube method	1241
313.15 K, 34013 kPa, Liquid, Vibrating tube method	1243.6
323.1 K, 76.8 kPa, Gas, isochoric method	3.311
323.1 K, 278.4 kPa, Gas, isochoric method	12.346
323.1 K, 470.5 kPa, Gas, isochoric method	21.739
323.11 K, 174.6 kPa, Gas, isochoric method	7.634
323.11 K, 413.3 kPa, Gas, isochoric method	19.231
323.11 K, 413.4 kPa, Gas, isochoric method	19.231
323.11 K, 658.4 kPa, Gas, isochoric method	32.258
323.12 K, 836.8 kPa, Gas, isochoric method	43.478
323.14 K, 1009 kPa, Liquid, Vibrating tube method	1071.8
323.14 K, 1595 kPa, Liquid, Vibrating tube method	1077.1
323.14 K, 2609 kPa, Liquid, Vibrating tube method	1085.6
323.14 K, 3638 kPa, Liquid, Vibrating tube method	1093.6
323.14 K, 4686 kPa, Liquid, Vibrating tube method	1101.1
323.14 K, 5705 kPa, Liquid, Vibrating tube method	1108
323.14 K, 6730 kPa, Liquid, Vibrating tube method	1114.5
323.14 K, 7748 kPa, Liquid, Vibrating tube method	1120.7
